Measured values from patent publication US20240368135A1 (VERTEX PHARMACEUTICALS INCORPORATED, priority 2021, published 2024).
Read-outs that look alike come from different tables or passages of the source.

Target: human NaV 1.8 (Homo sapiens, UniProt Q9Y5Y9)
Test: E-VIPR assay detecting and measuring NaV inhibition properties
Type: cell-based
Details: HEK cells expressing truncated human NaV 1.8
Method in brief: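 HEK cells expressing truncated, fully active human NaV1.8, with KIR2.1 BacMam co-transduction, were loaded with CC2-DMPE/DiSBAC6(3) voltage-sensing dyes for 20 min at room temperature. Compounds were tested in 11-point 3-fold dilutions (300 nM top final), optionally with 25% human serum, under electrical stimulation with FRET read-out.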

[1] = no human serum, read-out: IC50 in the E-VIPR Assay

Chain of human NaV 1.8 (Q9Y5Y9 126-399 limits assumed): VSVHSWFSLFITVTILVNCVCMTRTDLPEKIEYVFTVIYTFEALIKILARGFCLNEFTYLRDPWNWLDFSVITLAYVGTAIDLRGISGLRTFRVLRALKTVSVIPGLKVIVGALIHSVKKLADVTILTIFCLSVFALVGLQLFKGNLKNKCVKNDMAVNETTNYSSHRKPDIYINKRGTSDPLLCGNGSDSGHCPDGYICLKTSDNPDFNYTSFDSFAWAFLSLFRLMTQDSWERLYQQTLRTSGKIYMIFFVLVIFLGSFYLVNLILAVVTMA
Chain of human NaV 1.8 (Q9Y5Y9 660-890 limits assumed): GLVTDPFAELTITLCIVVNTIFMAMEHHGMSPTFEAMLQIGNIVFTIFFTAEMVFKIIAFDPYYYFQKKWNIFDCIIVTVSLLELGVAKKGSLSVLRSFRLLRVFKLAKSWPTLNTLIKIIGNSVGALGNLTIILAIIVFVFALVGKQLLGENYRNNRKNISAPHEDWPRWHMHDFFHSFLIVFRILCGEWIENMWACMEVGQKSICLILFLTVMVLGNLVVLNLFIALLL
Chain of human NaV 1.8 (Q9Y5Y9 1148-1722 limits assumed): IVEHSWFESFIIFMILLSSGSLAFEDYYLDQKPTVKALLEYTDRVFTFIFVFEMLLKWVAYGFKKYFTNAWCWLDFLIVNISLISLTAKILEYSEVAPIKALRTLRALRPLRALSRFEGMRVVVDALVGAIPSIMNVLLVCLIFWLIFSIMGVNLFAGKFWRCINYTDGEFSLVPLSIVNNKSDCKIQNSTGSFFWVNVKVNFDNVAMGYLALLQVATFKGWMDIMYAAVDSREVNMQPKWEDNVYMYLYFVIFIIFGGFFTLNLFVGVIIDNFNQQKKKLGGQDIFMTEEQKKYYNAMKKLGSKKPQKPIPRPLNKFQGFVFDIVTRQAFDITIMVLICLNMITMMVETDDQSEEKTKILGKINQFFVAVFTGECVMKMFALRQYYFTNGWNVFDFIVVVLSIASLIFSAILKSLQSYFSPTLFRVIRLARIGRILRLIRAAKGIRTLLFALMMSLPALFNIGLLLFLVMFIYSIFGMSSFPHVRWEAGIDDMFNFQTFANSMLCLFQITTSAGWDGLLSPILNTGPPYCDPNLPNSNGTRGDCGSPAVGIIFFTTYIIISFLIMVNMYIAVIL

| IC50 (in the presence of human serum (compound numbers followed by *), read-out: IC50 in the E-VIPR Assay, performed in the presence of human serum) [nM] | IC50 [1] [nM] | Compound |
| --- | --- | --- |
| 100 to 1000 |  | COc1cc(F)ccc1C1CC(C)(C(F)(F)F)OC1C(=O)Nc1ccnc(S(C)(=N)=O)c1 (stereo not drawn) [Compound 715, 3-(4-fluoro-2-methoxy-phenyl)-5-methyl-N-[2-(methylsulfonimidoyl)-4-pyridyl]-5-(trifluoromethyl)tetrahydrofuran-2-carboxamide] |
|  | 100 to 1000 | COc1c([C@@H]2[C@H](C)[C@H](C(C)C)O[C@H]2C(=O)Nc2cccnc2)ccc(F)c1F [Compound 720, (2R,3S,4S,5S)-3-(3,4-difluoro-2-methoxyphenyl)-5-isopropyl-4-methyl-N-(pyridin-3-yl)tetrahydrofuran-2-carboxamide] |
|  | < 10 | COc1c([C@H]2[C@H](C(=O)Nc3ccc(C(N)=O)nc3)O[C@@](C)(C(F)(F)F)[C@H]2C)cc(O)c(F)c1F [Compound 733, 5-((2R,3S,4S,5R)-3-(3,4-difluoro-5-hydroxy-2-methoxyphenyl)-4,5-dimethyl-5-(trifluoromethyl)tetrahydrofuran-2-carboxamido)picolinamide] |
